The record followed here is ChEMBL document CHEMBL3244333, “2-Acetylpyridine thiosemicarbazones. 2. N4,N4-Disubstituted derivatives as potential antimalarial agents” (J Med Chem, 1979).

Activity calls are given as the source filed them. The rule behind the calls is not given here.

The subject of data set [1] is Plasmodium berghei. Description: Antimalarial activity against Plasmodium berghei KBG 173 infected in mouse assessed as cured animal from parasite infection at 640 mg/kg. The format is functional, organism-based. Set-up: dose 640 mg/kg.
Data set [2] concerns Plasmodium berghei. Description: Antimalarial activity against Plasmodium berghei KBG 173 infected in mouse assessed as increase of mean survival time at 160 mg/kg. The format is functional.
Data set [3] has as its system Mus musculus. Description: Toxicity in Plasmodium berghei KBG 173 infected mouse at 160 mg/kg. The format is organism-based. Set-up: dose 160 mg/kg. Conditions: in vivo.
In data set [4] the test system is Plasmodium berghei. Description: Antimalarial activity against Plasmodium berghei KBG 173 infected in mouse assessed as cured animal from parasite infection at 160 mg/kg. The format is functional, organism-based. Also on record: dose 160 mg/kg.
The subject of data set [5] is Mus musculus. Briefly: Toxicity in Plasmodium berghei KBG 173 infected mouse at 40 mg/kg. The class given is organism-based. Also on record: dose 40 mg/kg. Conditions: in vivo.
Data set [6] deals with Plasmodium berghei. Briefly: Antimalarial activity against Plasmodium berghei KBG 173 infected in mouse assessed as cured animal from parasite infection at 40 mg/kg. The format is functional, organism-based. Set-up: dose 40 mg/kg.
The subject of data set [7] is Plasmodium berghei. Description: Antimalarial activity against Plasmodium berghei KBG 173 infected in mouse assessed as increase of mean survival time at 640 mg/kg. The format is functional.
Data set [8] relates to Mus musculus. Briefly: Toxicity in Plasmodium berghei KBG 173 infected mouse at 640 mg/kg. The class given is organism-based. Also on record: dose 640 mg/kg. Conditions: in vivo.
Data set [9] concerns Plasmodium berghei. Briefly: Antimalarial activity against Plasmodium berghei KBG 173 infected in mouse assessed as increase of mean survival time at 40 mg/kg. The format is functional.
For data set [10], the system named is Plasmodium berghei. Description: Antimalarial activity against Plasmodium berghei KBG 173 infected in mouse assessed as cured animal from parasite infection at 320 mg/kg. The class given is functional, organism-based. Also on record: dose 320 mg/kg.
Data set [11] relates to Plasmodium berghei. Briefly: Antimalarial activity against Plasmodium berghei KBG 173 infected in mouse assessed as increase of mean survival time at 80 mg/kg. The format is functional.
Data set [12] relates to Plasmodium berghei. Description: Antimalarial activity against Plasmodium berghei KBG 173 infected in mouse assessed as cured animal from parasite infection at 80 mg/kg. The format is functional, organism-based. Also on record: dose 80 mg/kg.
Data set [13] has as its system Plasmodium berghei. Briefly: Antimalarial activity against Plasmodium berghei KBG 173 infected in mouse assessed as increase of mean survival time at 320 mg/kg. The format is functional.
Data set [14] has as its system Mus musculus. Briefly: Toxicity in Plasmodium berghei KBG 173 infected mouse at 320 mg/kg. The class given is organism-based. Also on record: dose 320 mg/kg. Conditions: in vivo.
Data set [15] relates to Mus musculus. Description: Toxicity in Plasmodium berghei KBG 173 infected mouse at 80 mg/kg. The following applies: in vivo. Also on record: dose 80 mg/kg. The class given is organism-based.

For the molecule `C/C(=N/NC(=S)N1CC(C)OC(C)C1)c1ccccn1` (stereo unspecified), the result in data set [1], in data set [4] and in data set [6] was Active. Moreover, the Survival in data set [2] and in data set [7] was 0 days in each case. Besides, the Activity result in data set [3], in data set [5] and in data set [8] was “Toxic” each time.

Turning to `C/C(=N/NC(=S)N(C)C1CCCCCCC1)c1ccccn1`, the result in [1], in data set [4], in data set [10] and in data set [12] was Active. Besides, the Survival in data set [9] was 3.2 days; in data set [11], 9.6 days; in data set [7], 12.1 days. In addition, the Activity result in data set [8] was “Toxic”.

`C/C(=N/NC(=S)N1CC2CCC(CC2)C1)c1ccccn1`: the Survival in data set [13] turned out to be 0.2 days; in data set [7] it was 0.4 days. The outcome in data set [4], in [6] and in [12] was Active. Further, in [8], the Activity result was “Toxic”.

Regarding `C/C(=N/NC(=S)N(C)C1CCCC1)c1ccccn1`, the Survival is 6 days in [13], 1.5 days in [9] and 0 days in data set [7]. In addition, the outcome in [1], in data set [4], in [10] and in [12] was Active. In addition, the Activity entry in data set [14] and in [8] was “Toxic” in each case.

As for `C/C(=N/NC(=S)N1CCN(Cc2ccccc2)CC1)c1ccccn1`, the outcome in data set [1] and in data set [10] was Active. In addition, the Survival in data set [2] came to 5.6 days; in data set [9], 1.6 days; in data set [11], 4.4 days.

With `CCN(CC)C(=S)N/N=C(/C)c1ccccn1`, the result in data set [1], in [4], in data set [6] and in data set [12] was Active. The Survival in data set [9] was found to be 7.2 days; in data set [7], 0 days. In addition, the Activity entry in data set [3], in [15] and in data set [8] was “Toxic” in each case.

As to `C/C(=N/NC(=S)N1CCN(c2ccccn2)CC1)c1ccccn1`, the values for the Survival in data set [13] and in data set [7] were 0.7 days and 0 days, respectively. Moreover, the Activity result in data set [14] and in [8] was “Toxic” throughout.

Take `C/C(=N/NC(=S)N(C)CCc1ccccn1)c1ccccn1`: the Survival was determined as 6.7 days in data set [13]; 0 days in data set [2]; 1.7 days in data set [9]; 3.3 days in data set [11]; 0 days in data set [7]. In addition, the Activity entry in [3], in data set [14], in data set [5] and in [8] was “Toxic” throughout. Besides, the outcome in data set [4] and in data set [10] was Active.

`C/C(=N/NC(=S)N(C)Cc1ccccc1)c1ccccn1`: the result in [1], in data set [4], in [10] and in [12] was Active. For the same molecule, in data set [9], the Survival was found to be 4 days. In addition, the Activity entry in [3], in data set [14], in data set [15] and in [8] was “Toxic” each time.

With `C/C(=N/NC(=S)N1CC(C)CC(C)C1)c1ccccn1` (stereo unspecified), the results for the Survival in data set [13], in data set [9] and in [7] were 0 days, 5.6 days and -0.4 days, respectively. Moreover, the result in data set [4], in data set [10] and in [12] was Active. Moreover, the Activity result in data set [14] and in data set [8] was “Toxic” each time.

On to `CCCCN(C)C(=S)N/N=C(/C)c1ccccn1`, for which the Survival in data set [13] turned out to be 0 days; in data set [2], 6.9 days; in [9], 5.9 days; in data set [11], 8.1 days; in data set [7], 0 days. Further, the outcome in data set [1], in data set [4], in data set [10] and in data set [12] was Active. Besides, the Activity result in data set [3], in [14] and in data set [8] was “Toxic” throughout.

Consider `C/C(=N/NC(=S)N1CCN(c2cccc(C(F)(F)F)c2)CC1)c1ccccn1`, for which the result in data set [1], in data set [4] and in [10] was Active. Further, the Survival in data set [9] came to 0.1 days; in data set [11] it was 2.4 days. The Activity result in data set [14] and in data set [8] was “Toxic” throughout.

For the molecule `C/C(=N/NC(=S)N1CC=C(c2ccccc2)CC1)c1ccccn1`, the outcome in [1], in [4] and in [10] was Active. Also, the values for the Survival in [9] and in data set [11] were 0.8 days and 2 days, respectively.

Regarding `C/C(=N/NC(=S)N1CCC2(CC1)OCCO2)c1ccccn1`, the Survival in [2], in data set [9] and in [7] was 0 days in each case. For the same molecule, the Activity entry in data set [3], in data set [5] and in data set [8] was “Toxic” each time. The result in data set [4] and in data set [6] was Active.

On to `CCOC(=O)N1CCN(C(=S)N/N=C(/C)c2ccccn2)CC1`, for which the outcome in data set [1], in data set [4] and in data set [6] was Active. For the same molecule, the Survival in data set [2] and in [7] was 0 days in each case. Also, the Activity result in data set [3], in data set [5] and in data set [8] was “Toxic” in each case.

For the molecule `C/C(=N/NC(=S)N1CCCCCC1)c1ccccn1`, the outcome in data set [1], in [4], in data set [10], in [6] and in data set [12] was Active. Besides, the Survival in data set [9] was 6.2 days. Also, the Activity entry in data set [3], in data set [14] and in [8] was “Toxic” throughout.

For the molecule `C/C(=N/NC(=S)N1C(C)CCC1C)c1ccccn1` (stereo unspecified), the Survival in [13] was found to be 0 days; in [9] it was 4.7 days; in data set [7], 0 days. Further, the outcome in data set [1], in data set [4], in [10] and in [12] was Active. In addition, the Activity entry in [3], in data set [14] and in [8] was “Toxic” each time.

For the molecule `C/C(=N/NC(=S)N1CCN(c2ccccc2)CC1)c1ccccn1`, the Survival in data set [13] is -0.1 days; in data set [9] it was 7 days; in data set [11] it was 11.7 days; in data set [7], -0.4 days. In addition, the result in [1], in [4], in data set [6] and in data set [12] was Active. In addition, the Activity result in data set [14] and in [8] was “Toxic” in each case.

As for `C/C(=N/NC(=S)N1CCCC1)c1ccccn1`, the result in data set [1], in [4] and in data set [6] was Active. The Survival turned out to be 0 days in data set [2], 8.9 days in data set [9] and 0 days in data set [7]. Also, the Activity entry in data set [3], in [5] and in data set [8] was “Toxic” in each case.

`C/C(=N/NC(=S)N1CCC(Cc2ccccc2)CC1)c1ccccn1`: the outcome in data set [1], in data set [4] and in data set [10] was Active. In addition, the Survival in data set [9] amounted to 0.4 days; in data set [11], 2.8 days.

For `C/C(=N/NC(=S)N1C(C)CCCC1C)c1ccccn1` (stereo unspecified), the outcome in data set [1] and in [10] was Active. Besides, the Survival in [2] was 6.3 days; in data set [9], 0.5 days; in data set [11], 1.6 days. For the same molecule, the Activity result in [8] is given as “Toxic”.
